Experimental data from PMC12104674 (Frontiers in Pharmacology, 2025).
Like-named read-outs stand apart in the source and are kept apart here.

How the values were obtained:
[1] = Pyrotinib plasma pharmacokinetics with/without montmorillonite powder (Group A), LC-MS/MS, NCA; type: in vivo, healthy volunteers; conditions: for Tmax: median (minimum, maximum); for Vd/F: read-out: Vz/F
Method: (§1) On day 1, all subjects received a single oral dose of 400 mg pyrotinib after breakfast. […] Subjects in Group B received a single oral dose of 400 mg pyrotinib and 4 mg loperamide after breakfast on day 9, followed by additional doses of 2 mg loperamide at 2 h and 4 h post-administration.
(§2) Blood samples were collected at baseline (within 30 min prior to drug administration) and at 1, 2, 3, 4, 5, 6, 7, 8, 10, 12, 24, 48, 72, and 96 h following pyrotinib administration on days 1 and 9 to measure the concentration of pyrotinib in the plasma. After completion of the study on day 13, subjects underwent a final examination and were subsequently discharged. A safety follow-up was conducted between days 16 and 19.
(§3) The analysis of plasma samples for pyrotinib was based on a validated and sensitive liquid chromatography-tandem mass spectrometry (LC-MS/MS) method with high specificity. The plasma samples were stored at −70°C and analyzed within a stability period of 176 days. The calibration range for the standard curve was between 1.00 and 500 ng/mL, and the regression equation used linear fitting with a weighting factor of W = 1/X^2 (bioanalysis method validation report, data on file). In each batch of analysis, the number of quality control (QC) samples accounted for more than 5% of the unknown samples in that batch. […] Representative chromatograms of pyrotinib at the LLOQ (lower limit of quantification) and in a plasma sample can be found in the Supplementary Material.
(§4) The individual pharmacokinetic parameters of pyrotinib would be calculated using non-compartmental analysis (NCA) and summarized by groups and combination status with descriptive statistics. To estimate the difference in the least-square means between the combination treatment and pyrotinib alone, a mixed-effects model was used to analyze the natural log-transformed pharmacokinetic parameters of pyrotinib (including AUC0- ∞ , AUC0-t, and Cmax) for each group. The model included treatment as a fixed effect and subject as a random effect. Results were exponentiated to obtain geometric least-squares means, geometric mean ratios, and corresponding 90% confidence intervals (CIs) on the original scale. […] To account for a 10% dropout rate, 18 subjects were planned for each of Groups A and B, resulting in a total of 36 subjects.

[2] = Pyrotinib plasma pharmacokinetics with/without loperamide (Group B), LC-MS/MS, NCA; type: in vivo, healthy volunteers
Method: as §1, §2, §3, §4

[3] = Safety analysis (TEAEs), Group A; type: in vivo, healthy volunteers
Method: (§5) As summarized in Figure 1, the participants were divided into two groups: […] On day 1, all subjects received a single oral dose of 400 mg pyrotinib after breakfast. […] Subjects were instructed to have a light meal the night before the administration of the drug and to fast for 10 h overnight. Safety assessments included adverse events (AEs), physical examinations, vital signs, 12-lead ECGs, and clinical laboratory tests (hematology, serum chemistry, and urinalysis).

[4] = Safety analysis (TEAEs), Group B; type: in vivo, healthy volunteers
Method: as §5

[5] = parameters: method as in data on file; conditions: healthy volunteers, ref data on file, cited from earlier work
[6] = test system: untreated HER2-positive metastatic breast cancer; conditions: cited from earlier work
CYP3A4 [7] = assay: Calculated R1 / R1,gut for reversible CYP3A4 inhibition by loperamide
CYP3A4 [8] = test system: CYP3A4; parameters: method as in Marechal et al., 2006; conditions: CYP3A4 inhibition; ref Marechal et al., 2006; cited from earlier work
[9] = cited from earlier work; for bioavailability: oral loperamide, significant first-pass effect, ref IMODIUM package insert (2016)
albumin = conditions: of loperamide available in blood; cited from earlier work
[10] = combination with montmorillonite powder/pyrotinib alone
[11] = human, plasma, oral, Group A, pyrotinib alone, 400 mg, day 1, geometric mean (geometric CV)
[12] = with montmorillonite powder 2 h after pyrotinib vs. pyrotinib alone
[13] = combination with loperamide/pyrotinib alone
[14] = with loperamide vs. pyrotinib alone

## CCOc1cc2ncc(C#N)c(Nc3ccc(OCc4ccccn4)c(Cl)c3)c2cc1NC(=O)/C=C/[C@H]1CCCN1C [Pyrotinib]
[1]; Group A, 400 mg pyrotinib then 3 g montmorillonite powder 2 h later, day 9, geometric mean (geometric CV)
  CL/F: 315 L/h
[1]; Group A, pyrotinib alone, 400 mg, day 1, geometric mean (geometric CV)
  CL/F: 213 L/h
[1]; Group A, pyrotinib alone, 400 mg, day 1, geometric mean (geometric CV), listed as Pyrtonib
  CL/F: 213 (40.5) L/h
[1]; [10]
  geometric mean ratio (90% CI), AUC0-t: 0.669 (0.601, 0.745)
  geometric mean ratio (90% CI), AUC0-∞: 0.676 (0.610, 0.749)
  geometric mean ratio (90% CI), Cmax: 0.733 (0.670, 0.803)
[1]; human, plasma, oral
  half-life: 16.3 h
  Vd/F: 7120 L
[1]; human, plasma, oral, 400 mg, Group A, pyrotinib alone, 400 mg, day 1, geometric mean (geometric CV), read-out: AUC0-∞
  AUC(0-inf): 1880 ng·h/mL
[1]; human, plasma, oral, 400 mg, Group A, pyrotinib alone, 400 mg, day 1
  Tmax: 5 h
[1]; human, plasma, oral, 400 mg, Group A, pyrotinib alone, mixed-effects model, read-out: Geometric least-square mean AUC0-t
  AUC(0-t): 1830 ng·h/mL
[1]; human, plasma, oral, 400 mg, Group A, pyrotinib alone, mixed-effects model, read-out: Geometric least-square mean AUC0-∞
  AUC(0-inf): 1880 ng·h/mL
[1]; human, plasma, oral, Group A, 400 mg pyrotinib then 3 g montmorillonite powder 2 h later, day 9, geometric mean (geometric CV), read-out: AUC0-∞
  AUC(0-inf): 1270 ng·h/mL
[1]; human, plasma, oral, Group A, 400 mg pyrotinib then 3 g montmorillonite powder 2 h later, day 9
  Tmax: 3.51 h
[1]; human, plasma, oral, with montmorillonite powder vs. pyrotinib alone, read-out: time to maximum concentration earlier by
  decrease in Tmax: 1.5 h
[1]; [11]
  Cmax: 105 ng/mL
  Vd/F: 4580 L
[1]; human, plasma, oral, Group A, pyrotinib alone, 400 mg, day 1, mean (SD)
  half-life: 15.5 h
[1]; human, Group A, pyrotinib alone, single oral 400 mg after breakfast, day 1, plasma pyrotinib, geometric mean (geometric CV), read-out: AUC0-t
  AUC(0-t): 1840 ng·h/mL
[1]; montmorillonite powder at 2-h interval
  reduction in exposure of pyrotinib: 33%
[1]; [12]
  decrease in AUC0-t of pyrotinib: 33.1%
  decrease in AUC0-∞ of pyrotinib: 32.4%
  decrease in Cmax of pyrotinib: 26.7%
[1]; with montmorillonite powder vs. pyrotinib alone
  change in t1/2 of pyrotinib: no significant change
[2]; Group B, 400 mg pyrotinib + loperamide 4+2+2 mg, day 9, geometric mean (geometric CV)
  CL/F: 160 L/h
[2]; Group B, pyrotinib alone, 400 mg, day 1, geometric mean (geometric CV)
  CL/F: 189 L/h
[2]; Group B, pyrotinib alone, 400 mg, day 1, geometric mean (geometric CV), listed as Pyrtonib
  CL/F: 189 (26.7) L/h
[2]; [13]
  geometric mean ratio (90% CI), AUC0-t: 1.18 (1.08, 1.28)
  geometric mean ratio (90% CI), AUC0-∞: 1.19 (1.09, 1.29)
  geometric mean ratio (90% CI), Cmax: 0.946 (0.867, 1.03)
[2]; human, oral, Group B, 400 mg pyrotinib + 4 mg loperamide, then 2 mg loperamide at 2 and 4 h, day 9, plasma pyrotinib, geometric mean (geometric CV), read-out: AUC0-t
  AUC(0-t): 2430 ng·h/mL
[2]; human, plasma, oral, 400 mg, Group B, pyrotinib alone, 400 mg, day 1, geometric mean (geometric CV), read-out: AUC0-∞
  AUC(0-inf): 2110 ng·h/mL
[2]; human, plasma, oral, 400 mg, Group B, pyrotinib alone, mixed-effects model, read-out: Geometric least-square mean AUC0-t
  AUC(0-t): 2060 ng·h/mL
[2]; human, plasma, oral, 400 mg, Group B, pyrotinib alone, mixed-effects model, read-out: Geometric least-square mean AUC0-∞
  AUC(0-inf): 2110 ng·h/mL
[2]; human, plasma, oral, Group B, 400 mg pyrotinib + loperamide 4+2+2 mg, day 9, geometric mean (geometric CV), read-out: AUC0-∞
  AUC(0-inf): 2500 ng·h/mL
[2]; human, plasma, oral, Group B, pyrotinib alone, 400 mg, day 1, geometric mean (geometric CV)
  Cmax: 124 ng/mL
[2]; human, plasma, oral, Group B, pyrotinib alone, 400 mg, day 1, geometric mean (geometric CV), read-out: Vz/F
  Vd/F: 4520 L
[2]; human, plasma, oral, Group B, pyrotinib alone, 400 mg, day 1, mean (SD)
  half-life: 17.3 h
[2]; human, plasma, oral, Group B, pyrotinib alone, 400 mg, day 1, median (minimum, maximum)
  Tmax: 4.98 h
[2]; human, Group B, pyrotinib alone, single oral 400 mg after breakfast, day 1, plasma pyrotinib, geometric mean (geometric CV), read-out: AUC0-t
  AUC(0-t): 2060 ng·h/mL
[2]; [14]
  change in median Tmax of pyrotinib: no significant change
  decrease in Cmax of pyrotinib: approximately 5.4%
  increase in AUC0-t of pyrotinib: approximately 18%
  increase in AUC0-∞ of pyrotinib: ~19%
[3]; Group A
  incidence of hypertriglyceridemia: 11.1%
  serious adverse events: No serious adverse events
[3]; Group A (N = 18)
  number of treatment-emergent adverse events (TEAEs): 11
[3]; Group A (N = 18), pyrotinib 400 mg day 1 and pyrotinib + montmorillonite powder day 9
  subjects who experienced TEAEs: eight
[3]; Group A, all TEAEs
  severity of TEAEs: mild (Grade 1)
[3]; Group A, hypercholesterolemia, nausea, abdominal distension, ALT elevation, AST elevation, bradycardia, elevated blood bilirubin, upper respiratory tract infection, orthostatic hypotension (each)
  incidence of each other TEAE: 5.6%
[4]; Group B
  incidence of hypertriglyceridemia: 22.2%
  incidence of hyperuricemia: 11.1%
  incidence of oral ulcer: 11.1%
  incidence of rash: 11.1%
  serious adverse events: No serious adverse events
[4]; Group B (N = 18)
  number of treatment-emergent adverse events (TEAEs): 18
[4]; Group B (N = 18), pyrotinib 400 mg day 1 and pyrotinib + loperamide day 9
  subjects who experienced TEAEs: 12 subjects
[4]; Group B, nausea, abdominal distension, PR interval prolongation on ECG, increased heart rate, increased total bile acid, headache, dizziness (each)
  incidence of each other TEAE: 5.6%
[5]; oral 400 mg pyrotinib
  time to peak concentration: approximately 5 h
[5]
  elimination half-life: approximately 18 h
[6]; pyrotinib combined with trastuzumab and docetaxel, ref Ma et al., 2023
  progression-free survival (PFS): 24.3 months
[6]; pyrotinib group (138/297), ref Ma et al., 2023
  incidence of diarrhea grade 3 or higher: 46%
[6]; pyrotinib group (293/297), ref Ma et al., 2023
  incidence of diarrhea: 99%
[6]; pyrotinib vs. placebo, each with trastuzumab and docetaxel, ref Ma et al., 2023
  hazard ratio (PFS): 0.41
[6]; usually, ref Ma et al., 2023
  duration of diarrhea: 2 to 3 days

## CN(C)C(=O)C(CCN1CCC(O)(c2ccc(Cl)cc2)CC1)(c1ccccc1)c1ccccc1 [loperamide]
CYP3A4 [7]; CYP3A4
  calculated R1 for reversible inhibition: less than 1.0001
CYP3A4 [7]; based on molecular weight of 477 Dalton, guidance cut off 11
  calculated R1,gut: 1,342.7
[6]; ad hoc analysis, ref data on file
  median PFS by antidiarrheal used in diarrhea management: 19.5 months
CYP3A4 [8]
  IC50: […]
[9]; after 4 mg oral administration, ref Niemi et al., 2006
  maximum concentration: […]
[9]
  bioavailability: 0.3%
[9]; listed as Loperamide
  bioavailability: about 0.3%
albumin
  fraction bound to albumin: 95%
